What follows are compounds tested against T1, LXRα (Homo sapiens, UniProt Q13133) (assay: Co-transfection assay (LXR/LXRE luciferase reporter), LXRα). Conditions: CV-1 cells transfected with hLXRα and LXRE luciferase reporter; agonist activity; read-out: EC50 value against LXRα.
T1 construct: expressed in transfected cells; host or cells: CV-1 African green monkey kidney cells (ATCC CCL-70)
T1 sequence (Q13133 1-447): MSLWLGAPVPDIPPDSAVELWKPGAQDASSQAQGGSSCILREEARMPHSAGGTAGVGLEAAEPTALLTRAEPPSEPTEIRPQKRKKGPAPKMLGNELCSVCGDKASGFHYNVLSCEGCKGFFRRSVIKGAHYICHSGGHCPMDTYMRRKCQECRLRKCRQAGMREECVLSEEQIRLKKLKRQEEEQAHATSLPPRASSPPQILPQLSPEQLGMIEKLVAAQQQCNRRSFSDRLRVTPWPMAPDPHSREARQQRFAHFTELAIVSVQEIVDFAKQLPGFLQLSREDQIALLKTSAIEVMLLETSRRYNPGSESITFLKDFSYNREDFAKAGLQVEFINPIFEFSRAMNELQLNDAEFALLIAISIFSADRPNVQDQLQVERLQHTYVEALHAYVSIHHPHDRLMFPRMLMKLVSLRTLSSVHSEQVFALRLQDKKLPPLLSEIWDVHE
T1 sequence (P19793 1-462 partner): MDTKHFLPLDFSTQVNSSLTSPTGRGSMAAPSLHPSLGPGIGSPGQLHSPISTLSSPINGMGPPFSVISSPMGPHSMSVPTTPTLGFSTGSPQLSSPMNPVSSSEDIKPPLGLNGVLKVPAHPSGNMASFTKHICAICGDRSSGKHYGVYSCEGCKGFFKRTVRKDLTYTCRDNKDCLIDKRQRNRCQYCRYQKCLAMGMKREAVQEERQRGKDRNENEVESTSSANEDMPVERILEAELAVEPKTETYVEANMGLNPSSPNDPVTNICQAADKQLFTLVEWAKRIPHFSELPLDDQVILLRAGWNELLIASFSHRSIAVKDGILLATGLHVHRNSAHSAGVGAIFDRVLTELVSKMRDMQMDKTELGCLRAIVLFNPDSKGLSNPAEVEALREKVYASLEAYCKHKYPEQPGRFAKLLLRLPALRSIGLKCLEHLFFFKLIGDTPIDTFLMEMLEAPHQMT
Type: cell-based
Source text: The effect of activating or inhibiting LXR transcription activity of a test compound can be measured by a co-transfection which is a cell-based assay. LXR is known to function by forming a heterodimer with RXR. In a co-transfection assay, LXR and RXR expression plasmids and a luciferase reporter expression plasmid containing three copies of an LXR-RXR heterodimer-responding DNA sequence are first inserted into mammalian cells by transient transfection. Next, when the transfected cells are treated with a test compound having LXR agonist activity, the transcription activating effect of LXR is enhanced, and the LXR agonist activity of a test compound can be measured as an increase in luciferase activity.
(1) CV-1 African green monkey kidney cells (ATCC CCL-70)
(2) Co-transfection expression plasmid, pcDNA-hLXRα or pcDNA-hLXRβ, reporter (LXREx3-pTAL-Luc Vector)
(3) Lipofect AMINE, Plus Reagent (Invitrogen) transfection reagent
(4) Cell lysis buffer [Passive lysis buffer; 5× (Promega Corporation) is diluted with distilled water]
(5) Luciferase assay reagent (Promega Corporation)
(6) Medium (Dulbecco's Modified Eagle Medium (Gibco) 500 ml, Gentamicin Reagent Solution (Gibco) 2.5 ml, 2 mM L-Gluta Max I Supplement (Gibco) 5.0 ml, MEM Sodium pyruvate solution (Gibco) 5.0 ml, penicillin-streptomycin (Gibco) 5.0 ml, charcoal/dextran-treated FBS (HyClone) 50 ml) (7) OPTI-MEM I Reduced-Serum Medium (Gibco) Adjustment of Screening Reagents
The aforementioned CV-1 cells were disseminated into a 96-well assay plate (Costar 3610) to a concentration of 2×10^4 cells/[…]/well followed by incubating overnight at 37° C.
DNA transfection was carried out according to the protocol provided with the transfection reagent. 10 μl of OPTI-MEM I Reduced-Serum Medium (Gibco) and 0.5 μl of Lipofect AMINE (Invitrogen) were added to two 50 ml tubes followed by shaking the mixed solutions to obtain Solution A. The substances of (1) below were respectively added to each tube followed by shaking the mixed solutions and allowing to stand undisturbed for 15 minutes to obtain Solution B. In addition, Solution C was obtained by carrying out the same procedure using the substances of (2) below.
(1) 10 μl of OPTI-MEM I Reduced-Serum Medium, 1 μl of Plus Reagent (Invitrogen) and 0.1 μg of DNA [PCMX-LXRα (33 ng) and LXRE (66 ng)];
(2) 10 μl of OPTI-MEM I Reduced-Serum Medium, 1 μl of Plus Reagent (Invitrogen) and 0.1 μg of DNA [PCMX-LXRβ (33 ng) and LXRE (66 ng)].
The entire amount of the aforementioned Solution A was respectively added to the aforementioned Solution B followed by shaking and allowing to stand undisturbed for 15 minutes to obtain LXRα solution. In addition, LXRβ solution was obtained by carrying out the same procedure using the aforementioned Solutions C and A.
After removing the medium from the 96-well assay plate used to Incubate the CV-1 cells as described above by decanting, and completely removing any moisture, 50 μl/well of OPTI-MEM I Reduced-Serum Medium were added to each well followed by addition of the aforementioned LXRα solution or LXRβ solution to each well at 20 μl/well and incubating for 3 hours at 37° C.
Three hours later, 20% charcoal FBS-DMEM was added to each well at 70 μl/well. FBS-DMEM used for the medium was prepared by mixing charcoal and dextran-treated FBS at a ratio of 9:1. Next, test compounds adjusted to concentrations of 1 mM, 0.3 mM, 0.1 mM, 30 μM, 10 μM, 3 μM, 1 μM or 0 μM with DMSO were added to each well at 1.4 μl/well. […]

Row | SMILES | EC50 [µM]
1 | CC(C)(C)OC(=O)c1c(COc2ccc(-c3ccc(CC(=O)O)cc3)c(F)c2)ccc(C(F)(F)F)c1O [Example 14, (4′-{[2-(tert-Butoxycarbonyl)-3-hydroxy-4-(trifluoromethyl)benzyl]oxy}-2′-fluoro-1,1′-biphenyl-4-yl)acetic acid] | ≤ 5
2 | CC(C)(C)OC(=O)c1c(COc2ccc(-c3ccc(C4(C(=O)O)CC4)cc3)cc2)ccc(C(F)(F)F)c1O [Example 15, 1-(4′-{[2-(tert-Butoxycarbonyl)-3-hydroxy-4-(trifluoromethyl)benzyl]oxy}-1,1′-biphenyl-4-yl)cyclopropanecarboxylic acid] | ≤ 5
3 | CN(C)C(=O)Cc1ccc(-c2ccc(OCc3ccc(C(F)(F)F)c(O)c3C(=O)OC(C)(C)C)cc2)cc1 [Example 49, tert-Butyl 6-[({4′-[2-(dimethylamino)-2-oxoethyl]-1,1′-biphenyl-4-yl}oxy)methyl]-2-hydroxy-3-(trifluoromethyl)benzoate] | ≤ 5
4 | CNC(=O)Cc1ccc(-c2ccc(OCc3ccc(C(F)(F)F)c(O)c3C(=O)OC(C)(C)C)cc2)cc1 [Example 50, tert-Butyl 2-hydroxy-6-[({4′-[2-(methylamino)-2-oxoethyl]-1,1′-biphenyl-4-yl}oxy)methyl]-3-trifluoromethylbenzoate] | ≤ 5
5 | CC(C)(C)OC(=O)c1c(COc2ccc(-c3cc(CC(=O)O)ccc3F)cc2)ccc(C(F)(F)F)c1O [Example 52, (4′-{[2-(tert-Butoxycarbonyl)-3-hydroxy-4-(trifluoromethyl)benzyl]oxy}-6-fluoro-1,1′-biphenyl-3-yl)acetic acid] | ≤ 5

Reference: patent US7923573B2, “Benzene compound having 2 or more substituents” (Daiichi Sankyo Company, Limited, priority 2004, dated 2011)
